Assay [1] concerns the target T1, 3-dehydroquinate dehydratase (Escherichia coli K-12) (UniProt P05194).
T1 sequence (whole entry): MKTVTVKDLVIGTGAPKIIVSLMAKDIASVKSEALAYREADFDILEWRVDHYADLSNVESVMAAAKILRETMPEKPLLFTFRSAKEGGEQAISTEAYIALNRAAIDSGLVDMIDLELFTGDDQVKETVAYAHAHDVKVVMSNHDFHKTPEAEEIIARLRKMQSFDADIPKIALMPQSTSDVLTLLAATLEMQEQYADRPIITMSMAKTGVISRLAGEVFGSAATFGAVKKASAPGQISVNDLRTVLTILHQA
In words: Kcat value was evaluated against type 1 Dehydroquinase of Escherichia coli.

Assay [2] deals with T1, 3-dehydroquinate dehydratase (Escherichia coli K-12). In words: Kcat / Km value was evaluated against type 1 Dehydroquinase of Escherichia coli.
Assay [3] concerns Aspergillus nidulans. In words: The compound was evaluated for its kinetic parameter (Km) against type 2 Dehydroquinase of Aspergillus nidulans.
Assay [4] has as its system Mycobacterium tuberculosis. Put plainly: Kcat value was evaluated against type 2 Dehydroquinase of Mycobacterium tuberculosis.
The subject of assay [5] is Mycobacterium tuberculosis. In words: The compound was evaluated for its kinetic parameter (Km) against type 2 Dehydroquinase of Mycobacterium tuberculosis.
Assay [6] deals with Aspergillus nidulans. In words: Kcat value was evaluated against type 2 Dehydroquinase of Aspergillus nidulans.

Usually Km stands for the concentration of substrate that gives half-maximal velocity. For `O=C1CC(O)(C(=O)O)C(F)C(O)C1O` (stereo in doubt; 3), the values for the k cat in assay [1], in assay [4] and in assay [6] were 36 s⁻¹, 1.1 s⁻¹ and 46 s⁻¹, respectively. In addition, the k cat/Km in assay [2] came to 310000 M⁻¹ s⁻¹. Also, the Km in assay [3] was determined as 50 µM; in assay [5], 7.9 µM.

For the compound `O=C1CC(O)(C(=O)O)C(F)C(O)C1O` (stereo in doubt; 2), the k cat in assay [1] stood at 3 s⁻¹; in assay [4], 0.14 s⁻¹; in assay [6] it was 4.6 s⁻¹. In assay [2], this compound showed a k cat/Km of 310000 M⁻¹ s⁻¹. Moreover, the Km came out at 39 µM in assay [3] and 3.6 µM in assay [5].

In the case of `O=C1CC(O)(C(=O)O)CC(O)C1O` (stereo unspecified), the results for the Km in assay [3] and in assay [5] were 122 µM and 13 µM, respectively. Besides, the figures for the k cat in assay [4] and in assay [6] were 2.6 s⁻¹ and 313 s⁻¹, respectively.

(Values after ChEMBL document CHEMBL1133372, “Mechanistic studies on type I and type II dehydroquinase with (6R)- and (6S)-6-fluoro-3-dehydroquinic acids” (Bioorg Med Chem Lett, 2000).)
